In article PMC11173485, “Connecting GSK-3β Inhibitory Activity with IKK-β or ROCK-1 Inhibition to Target Tau Aggregation and Neuroinflammation in Alzheimer’s Disease—Discovery, In Vitro and In Cellulo Activity of Thiazole-Based Inhibitors” (Molecules, 2024):
Like-named read-outs stand apart in the source and are kept apart here.

Tests used:
Type in all cases: biochemical
[1] = molecular target: T1, CDK1/cyclinB (Homo sapiens, UniProt P06493); assay: Eurofins KinaseProfiler radiometric selectivity screen; conditions: Km ATP, remaining enzyme activity, n = 2
T1 construct: purchased Eurofins Discovery (KinaseProfiler service)
Description: (§1) Compound 62 is an ATP-competitive inhibitor of GSK-3β, raising concerns about selectivity. Therefore, we performed a selectivity screening at Eurofins Discovery on the CMGC group of kinases, which included the CDK, DYRK, MAPK, and GSK families (Figure 3 and Table S1 in the SI).
(§2) Selectivity studies for compound 62
(§3) Selectivity studies were performed at Eurofins in Kinase Enzymatic Radiometric [Km ATP]
(§4) Kinase Profiler Lead Hunter Assay. The percentage of enzymatic activity was measured at 1
(§5) µM of compound 62 in duplicate for 17 selected kinases.
(§6) Table S1. Inhibitory activity of compound 62 against panel of selected CMGC kinases.
(§7) kinase % of enzyme activity at 1 μM of compound 62±SD*
(§8) *Where n = 2, the value reported here is actually range / √ 2 .

[2] = molecular target: T2, CDK2/cyclinA (Homo sapiens, UniProt P24941); assay: as above; conditions: Km ATP, remaining enzyme activity, n = 2
T2 construct: purchased Eurofins Discovery (KinaseProfiler service)
Description: as §1, §2, §3, §4, §5, §6, §7, §8

[3] = molecular target: T3, CDK4/cyclinD3 (Homo sapiens, UniProt P11802); assay: as above; conditions: Km ATP, remaining enzyme activity, n = 2
T3 construct: purchased Eurofins Discovery (KinaseProfiler service)
T3 sequence (P11802 whole entry): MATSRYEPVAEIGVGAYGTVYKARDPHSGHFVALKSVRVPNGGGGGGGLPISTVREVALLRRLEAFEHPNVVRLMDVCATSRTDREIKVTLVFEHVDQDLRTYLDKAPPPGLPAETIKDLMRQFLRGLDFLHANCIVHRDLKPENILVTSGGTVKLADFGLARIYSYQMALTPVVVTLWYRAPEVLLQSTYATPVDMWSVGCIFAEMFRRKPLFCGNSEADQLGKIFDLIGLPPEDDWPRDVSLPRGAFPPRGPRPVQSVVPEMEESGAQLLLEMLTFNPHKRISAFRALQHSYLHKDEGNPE
T3 sequence (P30281 whole entry partner): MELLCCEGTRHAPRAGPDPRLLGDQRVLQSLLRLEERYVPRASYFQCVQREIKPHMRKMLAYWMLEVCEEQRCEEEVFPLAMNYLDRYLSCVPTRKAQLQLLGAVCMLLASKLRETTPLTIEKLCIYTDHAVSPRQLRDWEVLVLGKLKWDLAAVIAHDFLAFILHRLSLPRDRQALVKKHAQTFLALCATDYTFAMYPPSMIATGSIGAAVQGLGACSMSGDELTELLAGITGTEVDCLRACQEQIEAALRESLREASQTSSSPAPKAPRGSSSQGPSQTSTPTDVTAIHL
Description: as §1, §2, §3, §4, §5, §6, §7, §8

[4] = molecular target: T4, CDK6/cyclinD3 (Homo sapiens, UniProt Q00534); assay: as above; conditions: Km ATP, remaining enzyme activity, n = 2
T4 construct: purchased Eurofins Discovery (KinaseProfiler service)
Description: as §1, §2, §3, §4, §5, §6, §7, §8

[5] = molecular target: T5, CDK7/cyclinH/ MAT1 (Homo sapiens, UniProt P50613); assay: as above; conditions: Km ATP, remaining enzyme activity, n = 2
T5 construct: purchased Eurofins Discovery (KinaseProfiler service)
T5 sequence (P50613 whole entry): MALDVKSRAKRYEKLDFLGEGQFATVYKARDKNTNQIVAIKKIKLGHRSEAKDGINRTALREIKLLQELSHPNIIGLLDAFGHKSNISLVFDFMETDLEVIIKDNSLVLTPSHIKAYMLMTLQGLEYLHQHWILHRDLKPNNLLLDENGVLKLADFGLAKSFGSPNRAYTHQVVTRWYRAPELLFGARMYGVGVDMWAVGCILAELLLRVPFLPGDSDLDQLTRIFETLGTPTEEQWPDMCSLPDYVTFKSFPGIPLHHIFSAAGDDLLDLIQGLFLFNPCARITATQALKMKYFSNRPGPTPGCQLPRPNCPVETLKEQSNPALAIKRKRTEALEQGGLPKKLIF
T5 sequence (P51946 whole entry partner): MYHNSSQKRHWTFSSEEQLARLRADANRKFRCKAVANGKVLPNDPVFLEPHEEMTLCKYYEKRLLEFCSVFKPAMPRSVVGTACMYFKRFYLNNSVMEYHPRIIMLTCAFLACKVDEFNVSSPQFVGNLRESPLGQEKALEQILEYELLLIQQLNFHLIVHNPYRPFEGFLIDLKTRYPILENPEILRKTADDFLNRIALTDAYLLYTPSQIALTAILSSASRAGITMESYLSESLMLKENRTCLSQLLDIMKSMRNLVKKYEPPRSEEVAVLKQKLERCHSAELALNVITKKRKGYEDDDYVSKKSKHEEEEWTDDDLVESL
T5 sequence (P51948 whole entry partner): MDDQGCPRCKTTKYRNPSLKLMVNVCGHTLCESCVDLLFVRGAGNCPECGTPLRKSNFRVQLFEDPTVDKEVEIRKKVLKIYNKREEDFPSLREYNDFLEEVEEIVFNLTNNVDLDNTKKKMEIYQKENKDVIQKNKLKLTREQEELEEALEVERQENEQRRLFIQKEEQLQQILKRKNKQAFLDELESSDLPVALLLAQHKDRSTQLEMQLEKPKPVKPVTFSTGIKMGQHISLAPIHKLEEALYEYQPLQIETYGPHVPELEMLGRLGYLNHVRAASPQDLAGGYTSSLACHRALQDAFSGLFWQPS
Description: as §1, §2, §3, §4, §5, §6, §7, §8

[6] = molecular target: T6, CDK9/cyclin T1 (Homo sapiens, UniProt P50750); assay: as above; conditions: Km ATP, remaining enzyme activity, n = 2
T6 construct: purchased Eurofins Discovery (KinaseProfiler service)
Description: as §1, §2, §3, §4, §5, §6, §7, §8

[7] = molecular target: T7, DYRK1A (Homo sapiens, UniProt Q13627); assay: as above; conditions: Km ATP, remaining enzyme activity, n = 2
T7 construct: purchased Eurofins Discovery (KinaseProfiler service)
Description: as §1, §2, §3, §4, §5, §6, §7, §8

[8] = molecular target: T8, DYRK1B (Homo sapiens, UniProt Q9Y463); assay: as above; conditions: Km ATP, remaining enzyme activity, n = 2
T8 construct: purchased Eurofins Discovery (KinaseProfiler service)
T8 sequence (Q9Y463 whole entry): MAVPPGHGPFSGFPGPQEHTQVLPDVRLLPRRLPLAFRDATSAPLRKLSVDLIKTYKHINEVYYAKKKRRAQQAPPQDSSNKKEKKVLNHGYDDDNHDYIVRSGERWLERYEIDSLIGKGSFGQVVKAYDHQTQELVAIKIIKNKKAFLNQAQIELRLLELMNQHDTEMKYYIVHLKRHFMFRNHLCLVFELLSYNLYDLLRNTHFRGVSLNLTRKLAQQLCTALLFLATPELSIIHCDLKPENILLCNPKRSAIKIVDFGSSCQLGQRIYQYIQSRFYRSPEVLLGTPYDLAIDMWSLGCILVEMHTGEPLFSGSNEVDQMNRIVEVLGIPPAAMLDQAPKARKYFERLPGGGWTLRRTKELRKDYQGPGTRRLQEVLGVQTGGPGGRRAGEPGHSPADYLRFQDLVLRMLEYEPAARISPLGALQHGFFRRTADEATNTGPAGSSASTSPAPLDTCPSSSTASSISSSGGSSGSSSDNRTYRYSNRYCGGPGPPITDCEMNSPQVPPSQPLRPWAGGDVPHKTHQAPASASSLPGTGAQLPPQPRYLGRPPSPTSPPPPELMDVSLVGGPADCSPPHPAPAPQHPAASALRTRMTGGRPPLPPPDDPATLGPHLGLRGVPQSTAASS
Description: as §1, §2, §3, §4, §5, §6, §7, §8

[9] = molecular target: T9, GSK-3α (Homo sapiens, UniProt P49840); assay: as above; conditions: Km ATP, remaining enzyme activity, n = 2
T9 construct: purchased Eurofins Discovery (KinaseProfiler service)
Description: as §1, §2, §3, §4, §5, §6, §7, §8

[10] = molecular target: T10, JNK2α2 (Homo sapiens, UniProt P45984); assay: as above; conditions: Km ATP, remaining enzyme activity, n = 2
T10 construct: purchased Eurofins Discovery (KinaseProfiler service)
T10 sequence (P45984 whole entry): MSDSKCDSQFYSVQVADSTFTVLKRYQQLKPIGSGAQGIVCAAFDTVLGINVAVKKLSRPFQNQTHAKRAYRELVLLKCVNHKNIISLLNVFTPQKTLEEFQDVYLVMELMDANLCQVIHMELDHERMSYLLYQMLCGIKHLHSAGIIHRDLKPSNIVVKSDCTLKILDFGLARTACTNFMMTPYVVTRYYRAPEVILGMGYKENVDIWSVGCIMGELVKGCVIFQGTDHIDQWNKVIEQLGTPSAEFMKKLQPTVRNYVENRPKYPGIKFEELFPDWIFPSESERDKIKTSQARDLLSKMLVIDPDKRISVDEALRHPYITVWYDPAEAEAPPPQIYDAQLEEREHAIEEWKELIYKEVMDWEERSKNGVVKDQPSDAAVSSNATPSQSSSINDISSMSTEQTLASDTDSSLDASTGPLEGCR
Description: as §1, §2, §3, §4, §5, §6, §7, §8

[11] = molecular target: T11, JNK3 (Homo sapiens, UniProt P53779); assay: as above; conditions: Km ATP, remaining enzyme activity, n = 2
T11 construct: purchased Eurofins Discovery (KinaseProfiler service)
T11 sequence (P53779 whole entry): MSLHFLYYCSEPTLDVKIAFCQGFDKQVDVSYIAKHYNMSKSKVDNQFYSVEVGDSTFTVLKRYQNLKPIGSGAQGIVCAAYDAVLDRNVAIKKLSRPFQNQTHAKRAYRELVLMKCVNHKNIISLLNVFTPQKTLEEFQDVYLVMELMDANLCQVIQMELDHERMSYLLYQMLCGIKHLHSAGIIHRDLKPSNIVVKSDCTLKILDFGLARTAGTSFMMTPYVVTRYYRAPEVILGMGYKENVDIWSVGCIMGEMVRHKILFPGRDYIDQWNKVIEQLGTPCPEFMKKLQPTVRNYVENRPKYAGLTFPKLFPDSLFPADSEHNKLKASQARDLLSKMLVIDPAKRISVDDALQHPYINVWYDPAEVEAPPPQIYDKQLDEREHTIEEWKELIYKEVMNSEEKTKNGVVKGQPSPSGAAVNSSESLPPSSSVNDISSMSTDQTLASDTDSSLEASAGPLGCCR
Description: as §1, §2, §3, §4, §5, §6, §7, §8

[12] = molecular target: T12, MAPK1 (Homo sapiens, UniProt P27361); assay: as above; conditions: Km ATP, remaining enzyme activity, n = 2
T12 construct: purchased Eurofins Discovery (KinaseProfiler service)
T12 sequence (P27361 whole entry): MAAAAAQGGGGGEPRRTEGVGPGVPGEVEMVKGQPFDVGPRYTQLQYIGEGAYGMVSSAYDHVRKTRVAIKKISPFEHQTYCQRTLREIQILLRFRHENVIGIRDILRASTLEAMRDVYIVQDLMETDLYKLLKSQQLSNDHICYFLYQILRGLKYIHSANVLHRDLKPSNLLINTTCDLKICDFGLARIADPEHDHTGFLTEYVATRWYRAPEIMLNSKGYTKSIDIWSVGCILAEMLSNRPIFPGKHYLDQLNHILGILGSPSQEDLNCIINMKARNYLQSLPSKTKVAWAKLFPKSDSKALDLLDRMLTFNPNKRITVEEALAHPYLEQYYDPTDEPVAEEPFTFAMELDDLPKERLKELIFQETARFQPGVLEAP
Description: as §1, §2, §3, §4, §5, §6, §7, §8

[13] = molecular target: T13, MAPK2 (Homo sapiens, UniProt P28482); assay: as above; conditions: Km ATP, remaining enzyme activity, n = 2
T13 construct: purchased Eurofins Discovery (KinaseProfiler service)
T13 sequence (P28482 whole entry): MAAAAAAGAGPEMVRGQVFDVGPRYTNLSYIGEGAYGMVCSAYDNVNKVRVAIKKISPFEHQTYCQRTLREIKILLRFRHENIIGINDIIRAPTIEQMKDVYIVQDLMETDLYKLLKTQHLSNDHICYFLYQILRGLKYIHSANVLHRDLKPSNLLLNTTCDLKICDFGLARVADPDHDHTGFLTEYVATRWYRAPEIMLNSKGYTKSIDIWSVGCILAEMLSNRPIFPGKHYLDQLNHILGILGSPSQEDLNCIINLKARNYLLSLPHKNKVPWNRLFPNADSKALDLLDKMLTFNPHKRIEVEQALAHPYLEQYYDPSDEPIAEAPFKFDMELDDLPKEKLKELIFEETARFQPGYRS
Description: as §1, §2, §3, §4, §5, §6, §7, §8

[14] = molecular target: T14, SAPK2a(T106M) (Homo sapiens, UniProt Q16539, T106M); assay: as above; conditions: Km ATP, remaining enzyme activity, n = 2
T14 construct: purchased Eurofins Discovery (KinaseProfiler service)
Description: as §1, §2, §3, §4, §5, §6, §7, §8

[15] = molecular target: T15, SAPK2b (Homo sapiens, UniProt Q15759); assay: as above; conditions: Km ATP, remaining enzyme activity, n = 2
T15 construct: purchased Eurofins Discovery (KinaseProfiler service)
T15 sequence (Q15759 whole entry): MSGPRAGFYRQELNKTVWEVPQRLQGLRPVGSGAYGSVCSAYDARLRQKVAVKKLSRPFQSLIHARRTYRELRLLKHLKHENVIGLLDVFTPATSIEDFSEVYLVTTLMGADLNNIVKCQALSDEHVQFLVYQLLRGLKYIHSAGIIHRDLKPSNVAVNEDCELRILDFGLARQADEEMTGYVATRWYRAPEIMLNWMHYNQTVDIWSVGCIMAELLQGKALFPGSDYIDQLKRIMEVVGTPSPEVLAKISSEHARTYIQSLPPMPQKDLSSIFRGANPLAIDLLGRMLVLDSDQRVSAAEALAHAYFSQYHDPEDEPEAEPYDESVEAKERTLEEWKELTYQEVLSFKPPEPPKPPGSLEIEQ
Description: as §1, §2, §3, §4, §5, §6, §7, §8

[16] = molecular target: T16, SAPK3 (Homo sapiens, UniProt P53778); assay: as above; conditions: Km ATP, remaining enzyme activity, n = 2
T16 construct: purchased Eurofins Discovery (KinaseProfiler service)
Description: as §1, §2, §3, §4, §5, §6, §7, §8

[17] = molecular target: T17, GSK-3β (Homo sapiens, UniProt P49841); assay: Kinetic studies of GSK-3β inhibition (ADP-Glo, varying ATP); parameters: purchased Promega
T17 sequence (P49841 whole entry): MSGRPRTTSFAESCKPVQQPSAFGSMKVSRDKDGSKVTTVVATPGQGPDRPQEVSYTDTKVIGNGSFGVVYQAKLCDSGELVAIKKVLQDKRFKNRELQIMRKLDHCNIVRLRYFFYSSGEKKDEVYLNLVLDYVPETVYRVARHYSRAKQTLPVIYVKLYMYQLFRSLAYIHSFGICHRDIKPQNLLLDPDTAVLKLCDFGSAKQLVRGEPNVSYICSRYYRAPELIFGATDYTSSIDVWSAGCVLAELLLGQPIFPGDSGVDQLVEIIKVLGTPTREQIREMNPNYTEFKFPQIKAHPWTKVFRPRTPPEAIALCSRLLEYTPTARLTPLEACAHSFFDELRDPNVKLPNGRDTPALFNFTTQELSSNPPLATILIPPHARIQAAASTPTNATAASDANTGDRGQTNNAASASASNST
Description: Non-linear regression analysis of the Michaelis–Menten equation was conducted on ATP-velocity curves to calculate the Vmax and Km parameters. […] Lineweaver–Burk and Cornish–Bowden plots, included in the Supporting Information (Figure S1A,B), further illustrate this observation. […] (refer to Supporting Information, Figure S2). The negative Ki value was directly derived from the plot at the x-axis intersection.
Kinetic studies were performed using the GSK-3β Kinase Enzyme System (Promega; Madison, WI, USA) and ADP-Glo™ bioluminescent assay (Promega; Madison, WI, USA), following the manufacturer’s instructions. The general workflow is described in Section 6.9. Evaluation of In Vitro Inhibitory Potencies towards Kinases GSK-3β, IKK-β, and ROCK-1. […] The substrate concentration was kept constant. The luminescence was measured using the EnSpire multimode microplate reader (PerkinElmer, Waltham, MA, USA). Each data point was collected in triplicate. Vmax and Km values of the Michaelis–Menten kinetics were calculated using nonlinear regression from ATP–velocity curves. Lineweaver–Burk and Cornish–Bowden plots were obtained via linear regression in GraphPad Prism (GraphPad Prism 9; GraphPad Software, San Diego, CA, USA). The Ki value of inhibitor 62 was determined by replotting the Lineweaver–Burk plots data (Km versus [I]).
Kinetic studies of GSK-3β inhibition by compound 62
type of GSK-3β inhibition by compound 62; V = initial velocity rate, S = ATP concentration,
I = inhibitor concentration.
Figure S2. Determination of Ki value for ATP-competitive inhibitor 62. Data replot from
= Michaelis-Menten constant.
(also on this page, place not known: K i -15 -10 -5 5 10 15 -100 -50 50 100 Cmpd 62_Ki determination I [nM] Km -Ki) […]

[18] = molecular target: T17, GSK-3β; assay: Eurofins KinaseProfiler radiometric selectivity screen; parameters: purchased Eurofins Discovery (KinaseProfiler service)
Description: as §1, §2, §3, §4, §5, §6, §7, §8

SMILES: O=C1NC2(CCOC2)Nc2cc(-c3ccnc(NC(=O)C4CC4)c3)sc21 (stereo not drawn) [Compound 62, N-(4-(4′-Oxo-3′,4,4′,5-tetrahydro-1′H,2H-spiro[furan-3,2′-thieno [3,2-d]pyrimidin]-6′-yl)pyridin-2-yl)cyclopropanecarboxamide]
- % of enzyme activity at 1 μM of compound 62±SD, CDK1/cyclinB [1]: 33±1%
- % of enzyme activity at 1 μM of compound 62±SD, CDK2/cyclinA [2]: 26±2%
- % of enzyme activity at 1 μM of compound 62±SD, CDK4/cyclinD3 [3]: 83±5%
- % of enzyme activity at 1 μM of compound 62±SD, CDK6/cyclinD3 [4]: 88±0%
- % of enzyme activity at 1 μM of compound 62±SD, CDK7/cyclinH/ MAT1 [5]: 57±1%
- % of enzyme activity at 1 μM of compound 62±SD, CDK9/cyclin T1 [6]: 16±2%
- % of enzyme activity at 1 μM of compound 62±SD, DYRK1A [7]: 1±1%
- % of enzyme activity at 1 μM of compound 62±SD, DYRK1B [8]: 1±1%
- % of enzyme activity at 1 μM of compound 62±SD, GSK-3α [9]: 0±0%
- % of enzyme activity at 1 μM of compound 62±SD, JNK2α2 [10]: 89±14%
- % of enzyme activity at 1 μM of compound 62±SD, JNK3 [11]: 21±2%
- % of enzyme activity at 1 μM of compound 62±SD, MAPK1 [12]: 37±2%
- % of enzyme activity at 1 μM of compound 62±SD, MAPK2 [13]: 73±7%
- % of enzyme activity at 1 μM of compound 62±SD, SAPK2a(T106M) [14]: 80±1%
- % of enzyme activity at 1 μM of compound 62±SD, SAPK2b [15]: 98±1%
- % of enzyme activity at 1 μM of compound 62±SD, SAPK3 [16]: 22±3%
- type of GSK-3β inhibition ([17]; ATP 10-100 μM, inhibitor 0-100 nM, Km rises, Vmax preserved): ATP-competitive
- Ki ([17]; replot from Lineweaver-Burk plots, unit inferred, read-out: Determined Ki (Figure S2)): 2.22 nM
- Ki ([17]; replot of Lineweaver–Burk data, Km versus [I], read-out: Ki GSK-3β): 2 nM
- % of enzyme activity at 1 μM of compound 62±SD, GSK-3β ([18]; Km ATP, remaining enzyme activity, n = 2): 1±1%
- inhibition at 1 µM ([18]; text says GSK family): 99%
